# From patent US10905738B2, “Synthetic peptides, prodrugs, pharmaceutical compositions and uses” (Biozeus Desenvolvimento De Produtos Biofarmacêuticos, priority 2018, dated 2021)
# Experiments:
# [1] = tested on: smooth muscle of tracheal rings; assay: spasmodic contraction of tracheal rings ex vivo (histamine-induced); design: species or system Dunkin-Hartley guinea pigs; conditions: mean±SEM; for Effectiveness (Emax) (%): relaxation of tracheal rings contracted by histamine (50 μM); for Potency (pEC50) Molar: tracheal rings contracted by histamine (50 μM), peptides 0.01 to 10 μM
# Description: The magnitude of the relaxing effect of the peptides was evaluated by means of a model of spasmodic contraction of tracheal rings ex vivo, largely employed to test new bronchodilating agents (see CULLUM, V. A., FARMER, J. B., JACK, D., LEVY, G. P. Salbutamol: a new, selective β-adrenoceptive receptor stimulant. British journal of pharmacology, 35(1): 141-151. 1969; KAO, C. H., CHU, Y. H., WANG, H. W. Effects of lidocaine on rat's isolated tracheal smooth muscle. European Archives of Oto-Rhino-Laryngology, 267(5): 817-820. 2010; SORIANO-URSÚA, M. A., VALENCIA-HERNÁNDEZ, I., ARELLANO-MENDOZA, M. G., CORREA-BASURTO, J., TRUJILLO-FERRARA, J. G. Synthesis, pharmacological and in silico evaluation of 1-(4-dihydroxy-3, 5-dioxa-4-borabycyclo [4.4.0] deca-7,9,11-trien-9-yl)-2-(tert-butylamine) ethanol, a compound designed to act as a β2 adrenoceptor agonist. European journal of medicinal chemistry, 44(7): 2840-2846. 2009).
# For each test, Dunkin-Hartley guinea pigs (400-500 g) were euthanized in a CO2 atmosphere; subsequently, the trachea was exposed, removed and sectioned in segments of 1 to 3 cartilaginous tracheal rings. Each segment was transferred to an individual organ bath system containing Krebs nutritive solution (NaCl 118 mM; KCl […]; CaCl2) 2.5 mM; MgSO4 1.2 mM; KH2PO4 1.2 mM; NaHCO324 mM; glucose 11 mM) at 37° C., under constant aeration with a carbogenic mixture (95% of O2 and 5% of CO2). In each system, a stem fixed to the base of the container and another connected to an isometric transducer (GRASS FT-03) made up the support of the fragments. A data digitizing system connected to the isometric transducer allowed the recording of tension variations produced by the contraction of the tracheal rings (PowerLab™ 16/30, LabChart, version 8.1, AD Instruments, Australia). The basal tension was adjusted to 1 g, and subsequently, the contractility of the fragments was evaluated by a stimulus with carbachol (2.5 μM). After 1 h at rest, the basal tension was recovered and the tissues were subjected to contraction induced by histamine (50 μM) followed by exposure to increasing concentrations of the treatments (0.01 to 10 μM; n=8) or the comparator PnTx(19).
# Table 1 lists the mean±SEM of the potency values, shown as the negative logarithm of the concentration that reduced the voltage to 50% of the maximum Histamine-induced contraction (pEC50), and efficacy (Emax), calculated from at least 8 independent tests using the sigmoid nonlinear regression equation of the software Graph Prism 5.0 (GraphPad Software, La Jolla, Ca, USA).
# [2] = tested on: smooth muscle of pulmonary arteries; assay: relaxation of pulmonary arteries contracted with phenylephrine ex vivo; design: species or system male Wistar rats; conditions: n = 9; for pEC50: pulmonary arteries contracted with phenylephrine, peptides 1 nM-10 μM, mean±SEM; for Effectiveness (Emax) (%): relaxation percentage related to maximum phenylephrine contraction
# Description: The ex vivo model of pulmonary artery smooth muscle contraction with phenylephrine is very useful to screen candidate compounds for lung diseases that demand vasodilating effects (ALENCAR, A. K., PEREIRA, S. L., MONTAGNOLI, T. L., MAIA, R. C., KUMMERLE, A. E., LANDGRAF, S. S., CARUSO-NEVES, C., FERRAZ, E. B., TESCH, R., NASCIMENTO, J. H., DE SANT'ANNA, C. M., FRAGA, C. A., BARREIRO, E. J., SUDO, R. T., ZAPATA-SUDO, G. Beneficial effects of a novel agonist of the adenosine A2A receptor on monocrotaline-induced pulmonary hypertension in rats. Br J Pharmacol, 169: 953-62. 2013).
# Rats were anesthetized with midazolam and ketamine (2 mg/kg and 100 mg/kg, respectively) via intraperitoneal administration. After infusion of a lethal dose of sodium thiopental via intraperitoneal administration (50 mg/kg), the trunk of the pulmonary artery was carefully removed via sternotomy. The pulmonary artery was carefully dissected and the connective tissue removed. The arteries were connected to a force transductor, positioned in vertical chambers filled with Krebs solution, oxygenated and kept at 37° C.
# After a stabilization period of 2 hours at a tension of 1.5 grams, the arteries were exposed to increasing doses of phenylephrine (1 nM-10 μM) in order to obtain maximum smooth muscle contraction and then exposed to increasing doses of selected peptides in the concentrations of 1 nM-10 μM each (n=9). The tension generated by the pulmonary artery was evaluated at intervals of 5 minutes for each dose (ALENCAR, A. K., PEREIRA, S. L., MONTAGNOLI, T. L., MAIA, R. C., KUMMERLE, A. E., LANDGRAF, S. S., CARUSO-NEVES, C., FERRAZ, E. B., TESCH, R., NASCIMENTO, J. H., DE SANT'ANNA, C. M., FRAGA, C. A., BARREIRO, E. J., SUDO, R. T., ZAPATA-SUDO, G. Beneficial effects of a novel agonist of the adenosine A2A receptor on monocrotaline-induced pulmonary hypertension in rats. Br J Pharmacol 169: 953-62. 2013; ALENCAR, A. K., PEREIRA, S. L., DA SILVA, F. E., MENDES, L. V., CUNHA VDO, M., LIMA, L. M., MONTAGNOLI, T. L., CARUSO-NEVES, C., FERRAZ, E. B., TESCH, R., NASCIMENTO, J. H., SANT'ANNA, C. M., FRAGA, C. A., BARREIRO, E. J., SUDO, R. T., ZAPATA-SUDO, G. N-acylhydrazone derivative ameliorates monocrotaline-induced pulmonary hypertension through the modulation of adenosine AA2R activity. International Journal of Cardiology, 173(2): 154-62. 2014).
# Potency values are shown as the negative logarithm of the concentration that reduced the voltage to 50% of the maximum phenylephrine-induced contraction (pEC50), and they are expressed as mean±SEM. The maximum contraction achieved in a given artery was considered to be 100% of contraction, and the effectiveness (Emax) was expressed as the relaxation percentage related to this maximum value. The results were calculated from at least 3 independent tests using the sigmoid non-linear regression equation, and the statistical analysis of the concentration curve was done by performing a nonlinear fit of the logarithmic of the agonist versus response. All the above calculations were performed on the software Graph Prism 5.0 (GraphPad Software, La Jolla, Calif., USA). Tension analysis was performed on the software LabChart7 (AD Instruments, Sydney, Australia). As a cutoff to determine biological significance, we considered pulmonary artery relaxation values above 30% as biologically relevant, considered those as active and then calculated the Emax values (SUN, C. K., LIN, Y. C., YUEN, C. M., CHUA, S., CHANG, L. T., SHEU, J. J., LEE, F. Y., FU, M., LEU, S., YIP, H. K. Enhanced protection against pulmonary hypertension with sildenafil and endothelial progenitor cell in rats. International journal of cardiology, 162(1): 45-58. 2012; ALENCAR, A. K., PEREIRA, S. L., DA SILVA, F. E., MENDES, L. V., CUNHA VDO, M., LIMA, L. M., MONTAGNOLI, T. L., CARUSO-NEVES, C., FERRAZ, E. B., TESCH, R., NASCIMENTO, J. H., SANT'ANNA, C. M., FRAGA, C. […]
# cavernosal strips = assay: relaxation induced by electric stimuli in cavernosal strips pre-contracted with phenylephrine ex vivo; design: species or system rats of Sprague Dawley (SD) lineage; conditions: peptides 10^−10 M; 10^−8 M; 10^−6 M; FIG. 3
# Description: The relaxing potential of the peptides of the present invention on the smooth muscles of cavernous strips was evaluated ex vivo using tissue isolated from rats, a model that is largely used to test drug candidates for the treatment of ED (ITALIANO, G., CALABRÒ, A., PAGANO, F. A simplified in vitro preparation of the corpus cavernosum as a tool for investigating erectile pharmacology in the rat. Pharmacological research, 30(4): 325-334. 1994; GEMALMAZ, H., WALDECK, K., CHAPMAN, T. N., TUTTLE, J. B., STEERS, W. D., ANDERSSON, K E. In vivo and in vitro investigation of the effects of sildenafil on rat cavernous smooth muscle. The Journal of Urology, 165(3): 1010-1014.2001).
# Male rats of Sprague Dawley (SD) lineage were sacrificed by guillotine; the penises were removed surgically and placed on a Petri dish containing Krebs—bicarbonate solution (NaCl 118.1 mM; KCl 4.7 mM; KH2PO4 1.0 mM; MgSO4 1.0 mM; NaHCO3 25.0 mM; CaCl2) 2.5 mM and Glucose 11.1 mM). The corpus cavernosum were dissected by removing the glans, urethra, spongeous body and dorsal vein, and then separated by cutting the fibrous septum between them. Cavernosal strips measuring 2×2×7 mm were mounted separately in a bath for isolated organs containing bicarbonate solution-Krebs (pH 7.4) at 37° C., aerated with 95% of O02 and 5% of CO2. The tissue was connected to a tension transducer and the changes in tension were continuously registered. The cavernosal strips were contracted with phenylephrine (10^−5 M) and subsequently relaxed by electrical stimulation at different frequencies (1 to 32 Hz). […] Differences in the percentage of relaxation between treatment and control were evaluated with regard to statistical significance by means of two-way variance analysis (Two-Way ANOVA) followed by Bonferroni post-test. For the comparison between the treatments and control in light of the stimulation in a single frequency, the results were evaluated by one-way analysis variance (One-Way ANOVA) followed by Bonferroni post-test. […]
Substance,Effectiveness (Emax) (%) [1],Potency (pEC50) Molar [1],pEC50 [2],Effectiveness (Emax) (%) [2],enhancing effect on relaxation induced by electric stimuli in strips of cavernous body contracted by phenylephrine (cavernosal strips)
"RQYFWIAW [SEQ ID NO: 22, Ac-Arg-Gln-Tyr-Phe-Trp-Ile-Ala-Trp-NH2]",35.2 ± 1.8%,7.0 ± 0.2 Molar,5.8 ± 3.1,8% ± 2.83,–
"YFWIAWYKLAN [SEQ ID NO: 18, Ac-Tyr-Phe-Trp-Ile-Ala-Trp-Tyr-Lys-Leu-Ala-Asn-NH2]",38.0 ± 2.3%,7.2 ± 0.3 Molar,6.5 ± 9.3,18% ± 9.12,–
"WIAWYKL [SEQ ID NO: 23, Ac-Trp-Ile-Ala-Trp-Tyr-Lys-Leu-NH2]",35.5 ± 2.3%,7.5 ± 0.3 Molar,6.1 ± 6.2,4% ± 6.07,–
"QYFWIAWYKLANS [SEQ ID NO: 17, Ac-Gln-Tyr-Phe-Trp-Ile-Ala-Trp-Tyr-Lys-Leu-Ala-Asn-Ser-NH2]",37.1 ± 2.6%,6.8 ± 0.3 Molar,7.8 ± 3.0,15% ± 2.6,–
"RQYFWIAWY [SEQ ID NO: 20, Ac-Arg-Gln-Tyr-Phe-Trp-Ile-Ala-Trp-Tyr-NH2]",37.8 ± 2.9%,7.1 ± 0.3 Molar,6.1 ± 6.9,6% ± 7.64,–
"RQYFWIAWYKLANSK [SEQ ID NO: 5, Ac-Arg-Gln-Tyr-Phe-Trp-Ile-Ala-Trp-Tyr-Lys-Leu-Ala-Asn-Ser-Lys-NH2]",Inactive,Inactive,–,–,enhancing effect
